US20060234919A1, “Use” (priority 2001, published 2006)

Experiments:
[1] = tested on: collagenase-induced cutaneous inflammation; test: collagenase-induced cutaneous plasma protein extravasation; type: in vivo, guinea-pig
Experimental: One hour after anaesthesia of guinea-pigs with urethane (1.6 g/kg, i.p.), Evans blue (20 mg/kg) was injected into a jugular vein. Collagenase ([…]) or its solvent ([…] 154 mmol/l NaCl solution) was injected s. c. into the dorsal skin. All doses of collagenase as well as the solvent were injected on both sides of the spine in randomised order. The ensuing plasma protein extravasation was determined at 60 min by extraction of Evans blue (see above) from the dorsal skin.
Oxytocin was dissolved and diluted in DMSO for all experiments involving s. c. injection in volumes of 1.0 ml/kg. All pretreatments were given 1 h prior to the induction of the respective model of inflammation. All animal experiments approved of by Karolinska institutets animal committe.
Oxytocin was a gift from Poly Peptides Copenhagen, Denmark and was dissolved in phosphate-buffered saline (composition in mmol/l: NaCl 136.9, KCl 2.7, KH2PO4 1.5, Na2HPO4 7.7). Cyclophosphamide monohydrate and collagenase from Clostridium histolyticum (type II, clostridiopeptidase A, EC 3.4.24.3) were obtained from Sigma and were dissolved in 154 mmol/l NaCl.

N-acetyl-LTE4 = test: OVA-induced N-acetyl-LTE4 synthesis in BN rats (experimental asthma model); type: in vivo, rat; conditions: for biliary excretion of N-acetyl-LTE4: 1.0 mg/kg by aerosol
Experimental: Inbred male BN rats, 7-9 weeks old, were obtained from Harlan Sprague-Dawley. Active sensitisation was performed by subcutaneous injection of 1 ml of saline containing 1 mg of ovalbumin and 3.48 mg of aluminum hydroxide. At the same time, 0.3 ml of Bordetella pertussis vaccine containing heat-killed organisms was given intraperitoneally as an adjuvant. Animals were studied 14-21 days after sensitisation.
Two groups of rats (n=3 for each group) were lightly anaesthetised with xylazine (7 mg/kg) and pentobarbital (30 mg/kg ip) before endotracheal intubation. Each rat then received either saline or 1.0 mg/kg oxytocin (1.0 mg/ml) by aerosol over a period of 5 min using a disposable nebulizer at a flow rate of […] and an output of 0.15 ml/min. Seventeen hours later, the animals were again anaesthetised, and these treatments were repeated. After a further hour, each of the rats was challenged with aerosolised 5% OVA in saline for 5 min.
Before the second treatment with oxytocin or saline, the rats were anaesthetised with urethane (1 g/kg ip, 50% wt/vol). After blind orotracheal intubation (6 cm of PE-240 polyethylene catheter), the common bile duct was exposed and cannulated (15 cm of PE-20 polyethylene tubing) after ligation of duodenal end. The rats were allowed to stabilise for a period of 2 h before challenge with OVA. Bile was collected for 1 h before and for 2 consecutive periods of 1 h after OVA challenge ([…]). All bile samples were collected on ice in 1.5-ml Eppendorf tubes. The bile was kept frozen at […] before analysis.
Bile samples were thawed, and methanol was added to 0.3-ml aliquots to give a final concentration of 80%. […] Ultraviolet absorbance was monitored by a variable wavelength ultraviolet detector. […]
Column fractions were evaporated to dryness in a centrifuge under vacuum, and the residues were dissolved in phosphate-buffered saline (0.1 ml at pH 8.2). N-acetyl-LTE4 was measured in each fraction by using a monoclonal antibody directed against LTC4, which cross-reacted with N-acetyl-LTE4. […]

lipase = test: caerulein-induced pancreatitis, lipase activity in pancreatic tissue; type: in vivo, rat; conditions: 1 mg/ml s.c.; caerulein alone 4.87±0.72, control 0.24±0.26
Experimental: Caerulein-induced pancreatitis: Female Sprague-Dawley rats (200-250 g) were anaesthetized with pentobarbitone sodium and phenobarbitone sodium (each 40 mg/kg, i.p.). The cholecystokinin analogue caerulein (8 nmol/kg in 2 h) was infused via one jugular vein for exocrine hyperstimulation and induction of acute edematous pancreatitis (Lampel M, Kern H F. Acute interstitial pancreatitis in the rat in-duced by excessive doses of a pancreatic secretagogue. Virchows Arch (Pathol Anat) 1997; 373: 97-117), while control animals were infused with a corresponding volume (4 ml/kg/h) of phosphate-buffered saline. Pre-treatment with the kininase II inhibitor captopril ([…], i. p.) was given 30 min prior to the infusion of caerulein. At the end of the experiment, the animals were sacrificed with an overdose of pentobarbital sodium. The pancreatic tissue was dried for 16 h in a vacuum centrifuge and the edema was quantified as fluid wt. per dry wt. of the tissue. For the determination of lipase activity in serum, the blood was collected following decapitation in separate groups of rats. The pancreas of these animals was excised an placed immediately into 2 ml of a 154 mmol/l solution of NaCl. After centrifugation at 2×10^5 m/s^2 for 25 min the supernatant was stored at −80° C. All samples were assayed for lipase activity (lipase test Boehringer Mannheim, Germany).

Oxytocin
effect on collagenase-induced plasma protein extravasation ([1]; 1 ug/ml oxytocin, 10 and 30 mg collagenase): no effect | cutaneous plasma protein extravasation, Evans blue accumulation ([1]; s.c. pre-treatment 1 mg/ml, 10 mg collagenase, without oxytocin 3.5±1.0): 2.2 ± 0.9 mg | effect on collagenase-induced plasma protein extravasation ([1]; s.c. pre-treatment 1 mg/ml, higher doses of the enzyme): attenuated the effect | biliary excretion of N-acetyl-LTE4 (N-acetyl-LTE4; early response 0-1 h after OVA challenge, control 6.9±1.8): 4.3 ± 2.1 pmol/h | biliary excretion of N-acetyl-LTE4 (N-acetyl-LTE4; late response 5-6 h after OVA challenge, control 5.2±0.9): 2.6 ± 0.8 pmol/h | levels of N-acetyl-LTE4 in oxytocin-treated vs control groups (N-acetyl-LTE4; before OVA challenge): almost identical | active lipase in the pancreatic tissue (lipase): 1.34±0.29 U/mg
